Assays:
[1] = Bioavailability in Cynomolgus Monkeys: plasma pharmacokinetics of Compound A after i.v./p.o. dosing; details: cynomolgus monkey, in vivo
Protocol: (§1) The following in vivo data, in rats, dogs and monkeys, exemplify the surprising improvement in bioavailability of the diester prodrugs of the present invention over the diacid of 3S,4aR,6S, 8aR-6-(((4-carboxy)phenyl)methyl)1,2,3,4,4a,5,6,7,8,8a-decahydroisoquinoline-3-carboxylic acid. Percent bioavailability is determined using the following equation: [formula]
(§2) wherein AUC represents the area under the curve, p.o. represents oral dose, and i.v. represents intravenous dose.
Four female monkeys were administered an oral and iv dose of compound A (oral: 10 mg/kg; iv: 1 mg/kg) to determine oral bioavailability. The same animals were also administered an oral 10 mg/kg dose of compound B. The plasma concentrations of compound A were determined by LC/MS/MS.
Four female cynomolgus monkeys were given a single iv dose of compound A (1 mg/kg) on day 0, a single oral dose of compound A (10 mg/kg) on day 6 and a single oral dose of compound B (10 mg/kg) on day 10. Blood was collected at 0.5, 1, 2, 3, 4, 5, 6 and 8 hours post dose for oral dosing and 0.167, 0.33, 0.67, 1, 1.5, 2, 3 and 4 hours post dose for iv dosing. Dosing solutions for compound A and compound B were prepared in water. […] Measurable levels of drug (>10 ng/ml) were still present 8 hours post dose. […] Bioavailability was estimated at 34.8%.

[2] = Bioavailability in Dogs: plasma pharmacokinetics of Compound A after i.v./p.o. dosing; format: in vivo; details: both sexes, dog, iv, Beagle dogs, 10 mg/kg
Protocol: as §1, §2
Beagle dogs (2 male and 1 female) were administered an oral and iv dose of 3S,4aR,6S,8aR-6-(((4-carboxy)phenyl)methyl)-1,2,3,4,4a,5,6,7,8,8a-decahydroisoquinoline-3-carboxylic acid (10 mg/kg) to determine oral bioavailability. The same three dogs were also administered an oral 10 mg/kg dose of compound 3S,4aR,6S,8aR-6-(((4-carboxy)phenyl)methyl)-1,2,3,4,4a,5,6,7,8,8a-decahydroisoquinoline-3-carboxylic acid, diethyl ester, to determine whether the prodrug would increase bioavailability. The plasma concentrations of 3S,4aR,6S,8aR-6-(((4-carboxy)phenyl)methyl)-1,2,3,4,4a,5,6,7,8,8a-decahydroisoquinoline-3-carboxylic acid were determined by LC/MS/MS. […]

[3] = Pharmacokinetic parameters of Compound A in Fischer Rats after a 10 mg/kg dose; format: in vivo; details: rat, iv, plasma Compound A
Protocol: as §1, §2
Tables 1 and 2 below summarize the pharmacokinetic parameters found for Compounds A and B following 10 mg/kg administration (i.v. or p.o.) to Beagle Dogs and Fischer Rats respectively.

plasma levels of compound B (unchanged prodrug) ([1]; po, 10 mg/kg) | % Bioavail ([1]; female, po, 10 mg/kg) [%] | AUC ([1]; female, po, 10 mg/kg) | Improvement ([1]; female, po, 10 mg/kg) [X] | increase in the bioavailability ([1]; female, po, 10 mg/kg) [fold] | AUC [2] [ng·h/mL] | Cmax [2] [ng/mL] | AUC [3] [ng·h/mL] | Cmax [3] [ng/mL] | levels of drug in plasma at 0.5 hr ([1]; po, 10 mg/kg) | AUC ([1]; female, iv, 1 mg/kg) [ng·h/mL] | Cmax ([1]; female, iv, 1 mg/kg) [ng/mL] | clearance ([1]; female, iv, 1 mg/kg) [mL/min/kg] | half-life ([1]; female, iv, 1 mg/kg) [min] | Cmax ([1]; female, po, 10 mg/kg) [ng/mL] | Tmax ([1]; female, po, 10 mg/kg) [min] | concentration at 8 h ([1]; female, po, 10 mg/kg) [ng/mL] | SMILES
No detectable plasma levels | 34.8 | 4,149 ng hr/mL | 3.1 | 3.1 |  |  |  |  |  |  |  |  |  |  |  |  | CCOC(=O)c1ccc(C[C@H]2CC[C@H]3CN[C@H](C(=O)OCC)C[C@H]3C2)cc1.Cl [Compound B, 3S,4aR,6S, 8aR-6-(((4-carboxy)phenyl)methyl)-1,2,3,4,4a,5,6,7,8,8a-decahydroisoquinoline-3-carboxylic acid HCl, diethyl ester]
 | 11.1 | 1,320 ng hr/mL | 1 |  | 41400 | 28800 | 2410 | 6280 | measurable levels of drug were detected | 1190 | 1920 | 14 | 42 | 127 | 60 | > 10 | O=C(O)c1ccc(C[C@H]2CC[C@H]3CN[C@H](C(=O)O)C[C@H]3C2)cc1 [Compound A, 3S,4aR,6S,8aR-6-(((4-carboxy)phenyl)methyl)-1,2,3,4,4a,5,6,7,8,8a-decahydroisoquinoline-3-carboxylic acid]
